Source: the NIST ThermoML archive (doi:10.1021/acs.jced.5b00537)
Numbers after ± are expanded uncertainties.

Columns and labels:
[1] = Liquid; for viscosity: Cone and plate viscometry; for mass density: Vibrating tube method; for vapor or sublimation pressure: Ebulliometric method (Recirculating still)
[2] = xn = mol fraction of the nth substance listed; conditions: 100 kPa, Liquid, x2 = 0; for viscosity: Cone and plate viscometry; for mass density: Vibrating tube method

CC(C)CO [2-methyl-1-propanol]
viscosity ([1]; 293.15 K, 101 kPa): 4.315 ± 0.14 mPa·s
mass density ([1]; 293.15 K, 101 kPa): 801.75 ± 0.24 kg/m3
vapor or sublimation pressure ([1]; 296.87 K): 1.391 ± 0.7 kPa
mass density ([1]; 298.15 K, 101.33 kPa): 797.83 ± 0.62 kg/m3
vapor or sublimation pressure ([1]; 298.77 K): 1.593 ± 0.7 kPa
vapor or sublimation pressure ([1]; 300.53 K): 1.796 ± 0.7 kPa
vapor or sublimation pressure ([1]; 302.12 K): 1.995 ± 0.7 kPa
vapor or sublimation pressure ([1]; 302.29 K): 2 ± 0.7 kPa
vapor or sublimation pressure ([1]; 302.3 K): 2 ± 0.7 kPa
viscosity ([1]; 303.15 K, 101 kPa): 3.089 ± 0.14 mPa·s
mass density ([1]; 303.15 K, 101 kPa): 794.16 ± 0.24 kg/m3
vapor or sublimation pressure ([1]; 309.88 K): 3.289 ± 0.7 kPa
vapor or sublimation pressure ([1]; 311.74 K): 3.692 ± 0.7 kPa
viscosity ([1]; 313.15 K, 101 kPa): 2.261 ± 0.14 mPa·s
mass density ([1]; 313.15 K, 101 kPa): 786.27 ± 0.24 kg/m3
vapor or sublimation pressure ([1]; 313.42 K): 4.095 ± 0.7 kPa
vapor or sublimation pressure ([1]; 314.93 K): 4.489 ± 0.7 kPa
vapor or sublimation pressure ([1]; 316.71 K): 4.991 ± 0.7 kPa
vapor or sublimation pressure ([1]; 316.78 K): 4.995 ± 0.7 kPa
vapor or sublimation pressure ([1]; 322.51 K): 6.986 ± 0.7 kPa
viscosity ([1]; 323.15 K, 101 kPa): 1.701 ± 0.14 mPa·s
mass density ([1]; 323.15 K, 101 kPa): 778.28 ± 0.24 kg/m3
vapor or sublimation pressure ([1]; 323.97 K): 7.587 ± 0.7 kPa
vapor or sublimation pressure ([1]; 325.33 K): 8.182 ± 0.7 kPa
vapor or sublimation pressure ([1]; 326.61 K): 8.784 ± 0.7 kPa
vapor or sublimation pressure ([1]; 327.82 K): 9.384 ± 0.7 kPa
vapor or sublimation pressure ([1]; 329.01 K): 9.99 ± 0.7 kPa
vapor or sublimation pressure ([1]; 329.02 K): 9.989 ± 0.7 kPa
viscosity ([1]; 333.15 K, 101 kPa): 1.29 ± 0.14 mPa·s
mass density ([1]; 333.15 K, 101 kPa): 769.74 ± 0.24 kg/m3
vapor or sublimation pressure ([1]; 336.03 K): 14.47 ± 0.7 kPa
vapor or sublimation pressure ([1]; 337.45 K): 15.56 ± 0.7 kPa
vapor or sublimation pressure ([1]; 338.83 K): 16.66 ± 0.7 kPa
vapor or sublimation pressure ([1]; 340.11 K): 17.76 ± 0.7 kPa
vapor or sublimation pressure ([1]; 342.37 K): 19.95 ± 0.7 kPa
vapor or sublimation pressure ([1]; 342.51 K): 19.99 ± 0.7 kPa
vapor or sublimation pressure ([1]; 342.52 K): 19.99 ± 0.7 kPa
mass density ([1]; 343.15 K, 101 kPa): 760.83 ± 0.24 kg/m3
mass density ([1]; 353.15 K, 101 kPa): 751.67 ± 0.3 kg/m3
vapor or sublimation pressure ([1]; 357.51 K): 39.95 ± 0.71 kPa
vapor or sublimation pressure ([1]; 357.52 K): 39.94 ± 0.7 kPa
vapor or sublimation pressure ([1]; 362.71 K): 49.87 ± 0.71 kPa
mass density ([1]; 363.15 K, 101 kPa): 741.9 ± 0.3 kg/m3
vapor or sublimation pressure ([1]; 367.13 K): 59.85 ± 0.71 kPa
vapor or sublimation pressure ([1]; 370.94 K): 69.83 ± 0.72 kPa
vapor or sublimation pressure ([1]; 374.36 K): 79.82 ± 0.72 kPa
vapor or sublimation pressure ([1]; 377.44 K): 89.76 ± 0.73 kPa
vapor or sublimation pressure ([1]; 378.97 K): 94.99 ± 0.73 kPa

CC(C)CO [2-methyl-1-propanol] + CCC(C)(C)O
viscosity ([2]; 293.15 K): 4.315 ± 0.2 mPa·s
mass density ([2]; 293.15 K): 801.75 ± 0.61 kg/m3
viscosity ([2]; 303.15 K): 3.089 ± 0.2 mPa·s
mass density ([2]; 303.15 K): 794.16 ± 0.61 kg/m3
viscosity ([2]; 313.15 K): 2.261 ± 0.2 mPa·s
mass density ([2]; 313.15 K): 786.27 ± 0.61 kg/m3
viscosity ([2]; 323.15 K): 1.701 ± 0.2 mPa·s
mass density ([2]; 323.15 K): 778.28 ± 0.62 kg/m3
viscosity ([2]; 333.15 K): 1.29 ± 0.2 mPa·s
mass density ([2]; 333.15 K): 769.74 ± 0.62 kg/m3
mass density ([2]; 343.15 K): 760.83 ± 0.62 kg/m3
mass density ([2]; 353.15 K): 751.67 ± 1 kg/m3
mass density ([2]; 363.15 K): 741.9 ± 1 kg/m3

CCC(C)(C)O [2-methylbutan-2-ol]
viscosity ([1]; 293.15 K, 101 kPa): 4.596 ± 0.15 mPa·s
mass density ([1]; 293.15 K, 101 kPa): 808.77 ± 0.24 kg/m3
vapor or sublimation pressure ([1]; 296.61 K): 1.992 ± 0.7 kPa
vapor or sublimation pressure ([1]; 296.7 K): 1.99 ± 0.7 kPa
vapor or sublimation pressure ([1]; 297.94 K): 2.19 ± 0.7 kPa
mass density ([1]; 298.15 K, 101.33 kPa): 804.28 ± 0.62 kg/m3
vapor or sublimation pressure ([1]; 299.29 K): 2.388 ± 0.7 kPa
vapor or sublimation pressure ([1]; 300.33 K): 2.589 ± 0.7 kPa
vapor or sublimation pressure ([1]; 301.46 K): 2.791 ± 0.7 kPa
vapor or sublimation pressure ([1]; 302.54 K): 2.999 ± 0.7 kPa
viscosity ([1]; 303.15 K, 101 kPa): 2.983 ± 0.14 mPa·s
mass density ([1]; 303.15 K, 101 kPa): 799.74 ± 0.24 kg/m3
vapor or sublimation pressure ([1]; 310.7 K): 4.984 ± 0.7 kPa
vapor or sublimation pressure ([1]; 311.35 K): 5.181 ± 0.7 kPa
vapor or sublimation pressure ([1]; 311.98 K): 5.383 ± 0.7 kPa
vapor or sublimation pressure ([1]; 312.29 K): 5.49 ± 0.7 kPa
viscosity ([1]; 313.15 K, 101 kPa): 2.078 ± 0.14 mPa·s
mass density ([1]; 313.15 K, 101 kPa): 790.35 ± 0.24 kg/m3
vapor or sublimation pressure ([1]; 313.76 K): 5.991 ± 0.7 kPa
vapor or sublimation pressure ([1]; 315.13 K): 6.487 ± 0.7 kPa
vapor or sublimation pressure ([1]; 316.4 K): 6.987 ± 0.7 kPa
vapor or sublimation pressure ([1]; 317.37 K): 7.387 ± 0.7 kPa
vapor or sublimation pressure ([1]; 322.63 K): 9.978 ± 0.7 kPa
vapor or sublimation pressure ([1]; 322.92 K): 10 ± 0.7 kPa
viscosity ([1]; 323.15 K, 101 kPa): 1.494 ± 0.14 mPa·s
mass density ([1]; 323.15 K, 101 kPa): 780.66 ± 0.24 kg/m3
vapor or sublimation pressure ([1]; 323.15 K): 10.18 ± 0.7 kPa
vapor or sublimation pressure ([1]; 323.49 K): 10.38 ± 0.7 kPa
vapor or sublimation pressure ([1]; 323.84 K): 10.58 ± 0.7 kPa
vapor or sublimation pressure ([1]; 324.14 K): 10.78 ± 0.7 kPa
vapor or sublimation pressure ([1]; 324.51 K): 10.97 ± 0.7 kPa
vapor or sublimation pressure ([1]; 325.37 K): 11.57 ± 0.7 kPa
vapor or sublimation pressure ([1]; 326.73 K): 12.38 ± 0.7 kPa
vapor or sublimation pressure ([1]; 327.62 K): 12.97 ± 0.7 kPa
vapor or sublimation pressure ([1]; 327.81 K): 13.17 ± 0.7 kPa
vapor or sublimation pressure ([1]; 329.05 K): 13.97 ± 0.7 kPa
vapor or sublimation pressure ([1]; 330.38 K): 14.96 ± 0.7 kPa
viscosity ([1]; 333.15 K, 101 kPa): 1.093 ± 0.14 mPa·s
mass density ([1]; 333.15 K, 101 kPa): 770.4 ± 0.24 kg/m3
vapor or sublimation pressure ([1]; 336.11 K): 19.94 ± 0.7 kPa
vapor or sublimation pressure ([1]; 336.26 K): 19.99 ± 0.7 kPa
vapor or sublimation pressure ([1]; 337.58 K): 21.45 ± 0.7 kPa
vapor or sublimation pressure ([1]; 338.97 K): 22.94 ± 0.7 kPa
vapor or sublimation pressure ([1]; 340.32 K): 24.44 ± 0.71 kPa
vapor or sublimation pressure ([1]; 341.57 K): 25.93 ± 0.71 kPa
vapor or sublimation pressure ([1]; 341.59 K): 25.92 ± 0.71 kPa
vapor or sublimation pressure ([1]; 342.39 K): 26.94 ± 0.71 kPa
mass density ([1]; 343.15 K, 101 kPa): 759.8 ± 0.25 kg/m3
vapor or sublimation pressure ([1]; 348.11 K): 34.91 ± 0.71 kPa
vapor or sublimation pressure ([1]; 351.17 K): 39.89 ± 0.7 kPa
vapor or sublimation pressure ([1]; 351.33 K): 39.95 ± 0.7 kPa
mass density ([1]; 353.15 K, 101 kPa): 749.13 ± 0.3 kg/m3
vapor or sublimation pressure ([1]; 353.93 K): 44.88 ± 0.72 kPa
vapor or sublimation pressure ([1]; 356.46 K): 49.88 ± 0.72 kPa
vapor or sublimation pressure ([1]; 361.02 K): 59.92 ± 0.73 kPa
mass density ([1]; 363.15 K, 101 kPa): 738.77 ± 0.3 kg/m3
vapor or sublimation pressure ([1]; 372.63 K): 93.14 ± 0.75 kPa
vapor or sublimation pressure ([1]; 373.16 K): 94.89 ± 0.75 kPa
vapor or sublimation pressure ([1]; 373.29 K): 95.01 ± 0.77 kPa
vapor or sublimation pressure ([1]; 373.6 K): 96.54 ± 0.77 kPa
vapor or sublimation pressure ([1]; 374.05 K): 98.01 ± 0.76 kPa
vapor or sublimation pressure ([1]; 374.53 K): 99.81 ± 0.75 kPa
vapor or sublimation pressure ([1]; 374.93 K): 101.04 ± 1.3 kPa
vapor or sublimation pressure ([1]; 376.03 K): 104.99 ± 1.3 kPa
vapor or sublimation pressure ([1]; 377.33 K): 109.95 ± 1.3 kPa
vapor or sublimation pressure ([1]; 378.63 K): 115.02 ± 1.3 kPa
vapor or sublimation pressure ([1]; 379.87 K): 120.01 ± 1.3 kPa
vapor or sublimation pressure ([1]; 381.05 K): 124.96 ± 1.3 kPa
